Experimental data published in patent US8501787B2, “Compounds for the inhibition of angiogenesis and use thereof” (Shire Orphan Therapies GmbH, priority 2004, dated 2013).
Where two headings read alike, the source gives them in different places.

Molecular target: T1, integrin alpha5beta1 (Homo sapiens, UniProt P05556+P08648)
T1 construct: The integrin alpha5beta1 extracellular domain Fc-fusion was expressed and purified; made in house
Assay: Alpha5beta1-Fibronectin binding assay (competitive ELISA)
Protocol: The optimal concentrations of integrin and ligand were selected from ELISA binding studies with variable concentrations of both to obtain optimal signal noise ratio for further studies. IC50 studies were performed with fixed concentration of ligand and integrin and a serial dilution of inhibitor. The plates were measured with SpectraMax Plus reader (Molecular Devices). The resulting inhibition curves were analyzed using SoftMaxPro 4.0 software, the turning point describes the IC50 value.
Fibronectin and Vitronectin were purchased from Sigma, fibrinogen from Calbiochem. (EMD Biosciences, Darmstadt, Germany) The integrin alpha5beta1 extracellular domain Fc-fusion was expressed and purified as described in (Coe, 2001, JBC, 276, 35854). Integrins alphavbeta3 and alphavbeta5 were purchased from Chemicon (Chemicon Europe, Germany) and alphaIIbbeta3 form Kordia (Kordia Life Science, Leiden, Netherlands)
Fibronectin was diluted with coating buffer (15 mM Na2CO3, 35 mM NaHCO3, pH9.6) and coated with 100 μL/well to Nunc-Immuno maxisorp plates (Nalge Nunc Europe Ltd) over night at 4° C. After discarding the coating solution plates were washed 3 times with buffer 1 ([…], pH7.6, 150 mM NaCl, 1 mM […], 1 mg/mL BSA) and blocked with 100 μL blocking buffer (3% BSA in PBS 0.1% Tween20) for 1 hour at room temperature. After washing the blocked plates (3 times) with buffer 1, integrin (50 μL) and either inhibitor (serial dilution in buffer 1) or buffer 1 (50 μL) were added to the wells and incubated for one hour at RT. Plates were then washed (3 times) with buffer 1 and incubated with 100 μL of anti-human-Fc-HRP antibody conjugate (Sigma-Aldrich, Taufkirchen, Germany) in buffer 1 for 1 hour at RT. After additional washing steps (3 times) with buffer 1 50 μL of HRP substrate solution TMB (Seramun, Germany) were added to the wells. Colour development was stopped after 3-5 minutes with 50 μL 1M H2SO4. The developed colour was measured at 450 nm and analyzed as described above.

[1] = inhibition of integrin binding to fibronectin, read-out: IC50 alpha5beta1 in nM
[2] = method of section 1.1, read-out: Group (binding activities to integrin alpha5beta1)

SMILES	IC50 [1]	IC50 [2]
Cc1cc(C)c(S(=O)(=O)N[C@@H](CNC(=O)CO[C@@H]2C[C@@H](CNc3ccccn3)N(C(=S)Nc3ccc(-c4c5ccc(=O)cc-5oc5cc(O)ccc45)c(C(=O)O)c3)C2)C(=O)O)c(C)c1 [Compound 61, 5-{[4-{[2-Carboxy-2-(2,4,6-trimethyl-benzenesulfonylamino)-ethylcarbamoyl]-methoxy}-2-(pyridin-2-ylaminomethyl)-pyrrolidine-1-carbothioyl]-amino}-2-(6-hydroxy-3-oxo-3H-xanthen-9-yl)-benzoic acid]		10 to 500 nM
Cc1cc(C)c(S(=O)(=O)N[C@@H](CNC(=O)CO[C@@H]2C[C@@H](CNc3ccccn3)N(C(=O)C(F)(F)C(F)(F)C(F)(F)C(F)(F)C(F)(F)C(F)(F)C(F)(F)F)C2)C(=O)O)c(C)c1 [Compound 63, 3-{2-[1-(2,2,3,3,4,4,5,5,6,6,7,7,8,8,8-Pentadecafluoro-octanoyl)-5-(pyridin-2-ylaminomethyl)-pyrrolidin-3-yloxy]-acetylamino}-2-(2,4,6-trimethyl-benzenesulfonylamino)-propionic acid]		> 500 nM
CS(=O)(=O)NC(CNC(=O)COC1CC(CNc2ccccn2)N(C(=O)OCc2ccccc2)C1)C(=O)O (centres unmarked) [Compound 69, 4-[(2-Carboxy-2-methanesulfonylamino-ethylcarbamoyl)-methoxy]-2-(pyridin-2-ylaminomethyl)-pyrrolidine-1-carboxylic acid benzyl ester]		> 500 nM
O=C(CO[C@@H]1C[C@@H](CNc2ccccn2)N(C(=O)OCc2ccccc2)C1)NC[C@H](NC(=O)CCc1ccccc1)C(=O)O [Compound 74, 4-{[2-Carboxy-2-(3-phenyl-propionylamino)-ethylcarbamoyl]-methoxy}-2-(pyridin-2-ylaminomethyl)-pyrrolidine-1-carboxylic acid benzyl ester]		10 to 500 nM
O=C(CO[C@@H]1C[C@@H](CNc2ccccn2)N(C(=O)OCc2ccccc2)C1)NC[C@H](NC(=O)Nc1ccc(-c2ccccc2)cc1)C(=O)O [Compound 80, 4-{[2-(3-Biphenyl-4-yl-ureido)-2-carboxy-ethylcarbamoyl]-methoxy}-2-(pyridin-2-ylaminomethyl)-pyrrolidine-1-carboxylic acid benzyl ester]		10 to 500 nM
N[C@@H](CNC(=O)CO[C@@H]1C[C@@H](CNc2ccccn2)N(C(=O)OCc2ccccc2)C1)C(=O)O [Compound 81, 4-[(2-Amino-2-carboxy-ethylcarbamoyl)-methoxy]-2-(pyridin-2-ylaminomethyl)-pyrrolidine-1-carboxylic acid benzyl ester]		> 500 nM
O=C(CO[C@@H]1C[C@@H](CNc2ccccn2)N(C(=O)OCc2ccccc2)C1)NC[C@H](NC(=O)c1cc(C(F)(F)F)cc(C(F)(F)F)c1)C(=O)O [Compound 86, 4-{[2-(3,5-Bis-trifluoromethyl-benzoylamino)-2-carboxy-ethylcarbamoyl]-methoxy}-2-(pyridin-2-ylaminomethyl)-pyrrolidine-1-carboxylic acid benzyl ester]		> 500 nM
COc1cccc(OC)c1C(=O)N[C@@H](CNC(=O)CO[C@@H]1C[C@@H](CNc2ccccn2)N(C(=O)OCc2ccccc2)C1)C(=O)O [Compound 90, 4-{[2-Carboxy-2-(2,6-dimethoxy-benzoylamino)-ethylcarbamoyl]-methoxy}-2-(pyridin-2-ylaminomethyl)-pyrrolidine-1-carboxylic acid benzyl ester]		< 10 nM
O=C(CO[C@@H]1C[C@@H](CNc2ccccn2)N(C(=O)OCc2ccccc2)C1)NC[C@H](NC(=O)C1CCCCC1)C(=O)O [Compound 91, 4-{[2-Carboxy-2-(cyclohexanecarbonyl-amino)-ethylcarbamoyl]-methoxy}-2-(pyridin-2-ylaminomethyl)-pyrrolidine-1-carboxylic acid benzyl ester]		< 10 nM
Cc1cccc(C)c1C(=O)N[C@@H](CNC(=O)CO[C@@H]1C[C@@H](CNc2ccccn2)N(C(=O)OCc2ccccc2)C1)C(=O)O [Compound 92, 4-{[2-Carboxy-2-(2,6-dimethyl-benzoylamino)-ethylcarbamoyl]-methoxy}-2-(pyridin-2-ylaminomethyl)-pyrrolidine-1-carboxylic acid benzyl ester]		< 10 nM

The next lines start with the values.

IC50 [1]	IC50 [2]	SMILES
11.3 nM	10 to 500 nM	Cc1cc(C)c(S(=O)(=O)N[C@@H](CNC(=O)CO[C@@H]2C[C@@H](CNc3ccccn3)N(S(=O)(=O)Cc3ccccc3)C2)C(=O)O)c(C)c1 [Compound 15, 3-{2-[1-Phenylmethanesulfonyl-5-(pyridin-2-ylaminomethyl)-pyrrolidin-3-yloxy]-acetylamino}-2-(2,4,6-trimethyl-benzenesulfonylamino)-propionic acid]
	10 to 500 nM	Cc1cc(C)c(S(=O)(=O)N[C@@H](CNC(=O)CO[C@@H]2C[C@@H](CNc3ccccn3)N(CCCc3ccccc3)C2)C(=O)O)c(C)c1 [Compound 18, 3-{2-[1-(3-Phenyl-propyl)-5-(pyridin-2-ylaminomethyl)-pyrrolidin-3-yloxy]-acetylamino}-2-(2,4,6-trimethyl-benzenesulfonylamino)-propionic acid]
6.6 nM	< 10 nM	Cc1cc(C)c(S(=O)(=O)N[C@@H](CNC(=O)CO[C@@H]2C[C@@H](CNc3ccccn3)N(C(=O)NC3CCCC3)C2)C(=O)O)c(C)c1 [Compound 20, 3-{2-[1-Cyclopentylcarbamoyl-5-(pyridin-2-ylaminomethyl)-pyrrolidin-3-yloxy]-acetylamino}-2-(2,4,6-trimethyl-benzenesulfonylamino)-propionic acid]
18.1 nM	10 to 500 nM	Cc1ccc(CNC(=O)N2C[C@H](OCC(=O)NC[C@H](NS(=O)(=O)c3c(C)cc(C)cc3C)C(=O)O)C[C@H]2CNc2ccccn2)cc1 [Compound 25, 3-{2-[1-(4-Methyl-benzylcarbamoyl)-5-(pyridin-2-ylaminomethyl)-pyrrolidin-3-yloxy]-acetylamino}-2-(2,4,6-trimethyl-benzenesulfonylamino)-propionic acid]
	< 10 nM	Cc1cc(C)c(S(=O)(=O)N[C@@H](CNC(=O)CO[C@@H]2C[C@@H](CNc3ccccn3)N(C(=O)CC(C)(C)C)C2)C(=O)O)c(C)c1 [Compound 31, 3-{2-[1-(3,3-Dimethyl-butyryl)-5-(pyridin-2-ylaminomethyl)-pyrrolidin-3-yloxy]-acetylamino}-2-(2,4,6-trimethyl-benzenesulfonylamino)-propionic acid]
	10 to 500 nM	Cc1cc(C)c(S(=O)(=O)N[C@@H](CNC(=O)CO[C@@H]2C[C@@H](CNc3ccccn3)N(C(=O)CC3CCCC3)C2)C(=O)O)c(C)c1 [Compound 35, 3-{2-[1-(2-Cyclopentyl-acetyl)-5-(pyridin-2-ylaminomethyl)-pyrrolidin-3-yloxy]-acetylamino}-2-(2,4,6-trimethyl-benzenesulfonylamino)-propionic acid]
	10 to 500 nM	COc1cccc(CC(=O)N2C[C@H](OCC(=O)NC[C@H](NS(=O)(=O)c3c(C)cc(C)cc3C)C(=O)O)C[C@H]2CNc2ccccn2)c1 [Compound 36, 3-{2-[1-[2-(3-Methoxy-phenyl)-acetyl]-5-(pyridin-2-ylaminomethyl)-pyrrolidin-3-yloxy]-acetylamino}-2-(2,4,6-trimethyl-benzenesulfonylamino)-propionic acid]
11.9 nM	10 to 500 nM	CCC(=O)N1C[C@H](OCC(=O)NC[C@H](NS(=O)(=O)c2c(C)cc(C)cc2C)C(=O)O)C[C@H]1CNc1ccccn1 [Compound 38, 3-{2-[1-Propionyl-5-(pyridin-2-ylaminomethyl)-pyrrolidin-3-yloxy]-acetylamino}-2-(2,4,6-trimethyl-benzenesulfonylamino)-propionic acid]
	< 10 nM	Cc1cc(C)c(S(=O)(=O)N[C@@H](CNC(=O)CO[C@@H]2C[C@@H](CNc3ccccn3)N(C(=O)OCC(C)C)C2)C(=O)O)c(C)c1 [Compound 41, 4-{[2-Carboxy-2-(2,4,6-trimethyl-benzenesulfonylamino)-ethylcarbamoyl]-methoxy}-2-(pyridin-2-ylaminomethyl)-pyrrolidine-1-carboxylic acid isobutyl ester]
5.8 nM	< 10 nM	C#CCOC(=O)N1C[C@H](OCC(=O)NC[C@H](NS(=O)(=O)c2c(C)cc(C)cc2C)C(=O)O)C[C@H]1CNc1ccccn1 [Compound 44, 4-{[2-Carboxy-2-(2,4,6-trimethyl-benzenesulfonylamino)-ethylcarbamoyl]-methoxy}-2-(pyridin-2-ylaminomethyl)-pyrrolidine-1-carboxylic acid prop-2-ynyl ester]
	> 500 nM	Cc1cc(C)c(CNC(CNC(=O)COC2CC(CNc3ccccn3)N(C(=O)OCc3ccccc3)C2)C(=O)O)c(C)c1 (centres unmarked) [Compound 82, 4-{[2-Carboxy-2-(2,4,6-trimethyl-benzylamino)-ethylcarbamoyl]-methoxy}-2-(pyridin-2-ylaminomethyl)-pyrrolidine-1-carboxylic acid benzyl ester]
